In publication PMC11833248, “Evolutionary and Functional Analysis of Monoamine Oxidase F: A Novel Member of the Monoamine Oxidase Gene Family” (Genome Biology and Evolution, 2025) one finds Km data, which are given here for six compounds.

In the first assay the test system is IPT-MAO A/B.
Experiment: not given
Particulars: read-out: IPT-MAO A/B / K M / Human MAOB; 25 °C, 50 mM Hepes/NaOH pH 7.5, 0.5% v/v reduced Triton X-100.
As to `NCCc1ccc(O)c(O)c1` [Dopamine], the Km was 300 ± 30 µM.
As to `NCCc1c[nH]c2ccc(O)cc12` [Serotonin], the Km is 100 ± 10 µM.

The next assay relates to T1, IPT-MAO A/B.
T1 construct: full length 522 residues (borders given for the mammalian construct); N-terminal 6xHis; Pichia pastoris KM71; detergent-solubilized, FOS-choline-12
Nature of the assay: HRP-coupled spectrophotometric assay of H2O2, […] nm. The assay is classed as biochemical, Megalops cyprinoides. Conditions: 25 °C, 50 mM Hepes/NaOH pH 7.5, 0.5% v/v reduced Triton X-100; read-out: IPT-MAO A/B / K M / Human MAOB.
Take `NCc1ccccc1` [Benzylamine]: the Km worked out at 50 ± 10 µM.
For the compound `NCCC(=O)c1ccccc1N` [Kynuramine], the Km came out at 30 ± 4 µM.
The same measure, in the same setting: to `NCCc1ccccc1` [Phenethylamine] belongs 70 ± 10 µM.
For `NCCc1ccc(O)cc1` [Tyramine], the Km was 200 ± 40 µM.
